The record followed here is PubChem BioAssay (NCI).

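Where inhibition never reached the appropriate level, the endpoint shown equals the highest concentration tested. Otherwise, values were interpolated linearly from a five-concentration, 48-hour dose response in 96-well plates. TGI: concentration producing complete growth inhibition.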 Some results are limits rather than exact numbers.

Some test systems named below: SF-295 CNS; NCI-H23 lung; HCT-116 colon; NCI/ADR-RES ovarian; NCI-H460 lung; M14 melanoma; A549 NSCLC; SF-539 CNS; SNB-75 CNS; SN12C renal; HCC-2998 colon; EKVX NSCLC; OVCAR-5 ovarian; UO-31 renal; OVCAR-4 ovarian; COLO 205 colon; PC-3 prostate; K-562 leukemia; MDA-MB-435; UACC-62 melanoma.
Holding throughout (experiment): growth of human tumour cells (NCI), 48 h

In the case of `CC1CN=C(N(C(=O)Nc2ccccc2)c2ccc(Cl)c(Cl)c2)S1` (stereo unspecified), the TGI in the assay with SF-295 CNS was over 100 µM; with NCI-H23 lung, over 100 µM; with HCT-116 colon, over 100 µM; in the assay on NCI/ADR-RES ovarian, over 100 µM; in the assay with NCI-H460 lung it was 53.1 µM; in the assay on M14 melanoma it was over 100 µM. Further, the TGI is over 100 µM in the assay on A549 NSCLC; over 100 µM in the assay with SF-539 CNS; over 100 µM in the assay with SNB-75 CNS; 56.6 µM in the assay with SN12C renal; 69.9 µM with HCC-2998 colon; over 100 µM in the assay with EKVX NSCLC. The TGI with OVCAR-5 ovarian is over 100 µM; in the assay on UO-31 renal, over 100 µM; with OVCAR-4 ovarian it was over 100 µM; in the assay on COLO 205 colon it was over 10 µM; with PC-3 prostate, over 100 µM; in the assay on K-562 leukemia, over 10 µM.
For the compound `Cc1ncc([N+](=O)[O-])n1CCNCCCCn1ccnc1[N+](=O)[O-]`, the TGI in the assay with SF-295 CNS, with NCI-H23 lung, with HCT-116 colon, in the assay on NCI/ADR-RES ovarian, in the assay with NCI-H460 lung and in the assay with M14 melanoma was over 100 µM in each case. For the same compound, the TGI in the assay with A549 NSCLC, in the assay with SF-539 CNS, with SNB-75 CNS, with SN12C renal, in the assay with MDA-MB-435 and in the assay on UACC-62 melanoma was over 100 µM each time. Moreover, the TGI in the assay on EKVX NSCLC, with OVCAR-5 ovarian, in the assay with UO-31 renal, in the assay with OVCAR-4 ovarian, in the assay with COLO 205 colon and with PC-3 prostate was over 100 µM each time. The same compound yielded a TGI in the assay on K-562 leukemia of over 100 µM.
On to `CC(=O)N(C)CCc1c[nH]c2ccccc12`, for which the TGI in the assay with SF-295 CNS, in the assay on NCI-H23 lung, with HCT-116 colon, in the assay with NCI/ADR-RES ovarian, in the assay on NCI-H460 lung and with M14 melanoma was over 100 µM each time. For the same compound, the TGI with A549 NSCLC, with SF-539 CNS, with SNB-75 CNS, with SN12C renal, with MDA-MB-435 and in the assay on UACC-62 melanoma was over 100 µM throughout. Also, the TGI in the assay on EKVX NSCLC, in the assay on OVCAR-5 ovarian, in the assay with UO-31 renal, in the assay with OVCAR-4 ovarian, in the assay on COLO 205 colon and in the assay on PC-3 prostate was over 100 µM in each case. Moreover, in the assay on K-562 leukemia, the TGI was over 100 µM.
In the case of `O=C(CC(C(=O)c1ccsc1)c1ccccc1)c1ccccc1` (stereo unspecified), the TGI with SF-295 CNS was over 100 µM; in the assay on NCI-H23 lung, 36.1 µM; with HCT-116 colon, over 100 µM; with NCI/ADR-RES ovarian, over 100 µM; in the assay with NCI-H460 lung it was over 100 µM; in the assay with M14 melanoma, over 100 µM. Further, the TGI with A549 NSCLC is 80 µM; in the assay with SF-539 CNS, over 100 µM; in the assay on SNB-75 CNS it was over 100 µM; in the assay with SN12C renal, over 100 µM; with MDA-MB-435, over 100 µM; in the assay with HCC-2998 colon it was over 100 µM. Moreover, the TGI with UACC-62 melanoma was over 100 µM; in the assay with EKVX NSCLC, over 100 µM; in the assay on OVCAR-5 ovarian, over 100 µM; in the assay with UO-31 renal, over 100 µM; in the assay on OVCAR-4 ovarian, 75.9 µM; in the assay on COLO 205 colon, over 100 µM. In the assay with K-562 leukemia, this compound came in with a TGI of over 100 µM.
On to `O=C(Cn1c(-c2ccccc2)cc2ccccc21)N1CCCC1`, for which the TGI with SF-295 CNS, with HCT-116 colon, with NCI/ADR-RES ovarian, in the assay with NCI-H460 lung, in the assay on M14 melanoma and with A549 NSCLC was over 100 µM throughout. Moreover, the TGI in the assay with SNB-75 CNS, in the assay on SN12C renal, in the assay on UACC-62 melanoma, with EKVX NSCLC, in the assay on OVCAR-5 ovarian and with UO-31 renal was over 100 µM in each case. The TGI in the assay on OVCAR-4 ovarian, with COLO 205 colon and with PC-3 prostate was over 100 µM each time.
On to `CC1CN=C(N(C(=O)Nc2ccc(Cl)c(Cl)c2)c2ccccc2)S1` (stereo unspecified), for which the TGI in the assay on SF-295 CNS, in the assay on NCI-H23 lung, with HCT-116 colon, in the assay on NCI/ADR-RES ovarian, in the assay on NCI-H460 lung and in the assay on M14 melanoma was over 100 µM in each case. Moreover, the TGI with A549 NSCLC, in the assay with SF-539 CNS, in the assay on SNB-75 CNS, in the assay with SN12C renal, with HCC-2998 colon and with EKVX NSCLC was over 100 µM in each case. For the same compound, the TGI in the assay on OVCAR-5 ovarian, in the assay on UO-31 renal, with OVCAR-4 ovarian, with COLO 205 colon and in the assay on PC-3 prostate was over 100 µM in each case.
In the case of `Cn1cnnc1Sc1c([N+](=O)[O-])ncn1C`, the TGI with SF-295 CNS, in the assay with NCI-H23 lung, in the assay with HCT-116 colon, in the assay with NCI-H460 lung, with M14 melanoma and in the assay with A549 NSCLC was over 100 µM each time. Besides, the TGI in the assay with SF-539 CNS, in the assay with SNB-75 CNS, in the assay with SN12C renal, with HCC-2998 colon, in the assay with UACC-62 melanoma and with EKVX NSCLC was over 100 µM in each case. For the same compound, the TGI with OVCAR-5 ovarian, in the assay with UO-31 renal, in the assay with OVCAR-4 ovarian, in the assay on COLO 205 colon and in the assay with K-562 leukemia was over 100 µM in each case.
Regarding `CN1C(=O)C2CCCC(=O)N2c2cccnc21` (stereo unspecified), the TGI in the assay with SF-295 CNS, with NCI-H23 lung, in the assay with HCT-116 colon, in the assay with NCI/ADR-RES ovarian, in the assay on NCI-H460 lung and in the assay on A549 NSCLC was over 100 µM throughout. The TGI in the assay on SF-539 CNS, with SN12C renal, in the assay on MDA-MB-435, in the assay on HCC-2998 colon, in the assay on UACC-62 melanoma and in the assay with EKVX NSCLC was over 100 µM throughout. For the same compound, the TGI in the assay on UO-31 renal, in the assay on OVCAR-4 ovarian, in the assay with COLO 205 colon and in the assay with K-562 leukemia was over 100 µM throughout.
As to `COc1ccc(-c2cc3ccccc3oc2=O)cc1OC`, the TGI in the assay on SF-295 CNS, in the assay on NCI-H23 lung, in the assay on HCT-116 colon, in the assay with NCI/ADR-RES ovarian, with M14 melanoma and in the assay on A549 NSCLC was over 100 µM in each case. In addition, the TGI with SF-539 CNS, with SNB-75 CNS, in the assay with SN12C renal, in the assay on MDA-MB-435, with UACC-62 melanoma and with EKVX NSCLC was over 100 µM in each case. The TGI with OVCAR-5 ovarian, with UO-31 renal, in the assay on OVCAR-4 ovarian, in the assay with COLO 205 colon and with K-562 leukemia was over 100 µM throughout.
Turning to `Cc1ccc(Cl)c2c(=O)c3ccc(N)cc3sc12`, the TGI was 31.8 µM in the assay with SF-295 CNS; 97.4 µM in the assay on NCI-H23 lung; 35.1 µM in the assay on HCT-116 colon; 35 µM in the assay on NCI/ADR-RES ovarian; over 100 µM with NCI-H460 lung; over 100 µM with M14 melanoma. Further, the TGI in the assay with A549 NSCLC was 85.3 µM; in the assay on SF-539 CNS, 45.1 µM; in the assay with SNB-75 CNS, 37.8 µM; in the assay on SN12C renal, 32.9 µM; in the assay on UACC-62 melanoma, 30.8 µM; in the assay on EKVX NSCLC it was 52.8 µM. The TGI with OVCAR-5 ovarian is over 100 µM; with UO-31 renal, 41.2 µM; in the assay on COLO 205 colon, 37.5 µM; in the assay on PC-3 prostate, 76.7 µM; with K-562 leukemia, 48.6 µM.
On to `COC(=O)NC(C(F)(F)F)(C(F)(F)F)P1(=O)OCCCO1`, for which the TGI was 55.3 µM in the assay with SF-295 CNS; 50.9 µM with NCI-H23 lung; 62 µM in the assay with HCT-116 colon; over 100 µM in the assay with NCI/ADR-RES ovarian; 84.6 µM in the assay on NCI-H460 lung; over 100 µM in the assay with M14 melanoma. Also, the TGI in the assay with A549 NSCLC is over 100 µM; in the assay on SF-539 CNS it was 43 µM; in the assay on SNB-75 CNS, over 100 µM; in the assay with SN12C renal it was over 100 µM; in the assay with MDA-MB-435 it was 46.1 µM; in the assay on UACC-62 melanoma it was 33.2 µM. The TGI is 82.1 µM in the assay with OVCAR-5 ovarian; 65.6 µM in the assay on UO-31 renal; over 100 µM in the assay on OVCAR-4 ovarian; 69.9 µM with COLO 205 colon; over 100 µM with PC-3 prostate; over 100 µM with K-562 leukemia.
As for `O=C(CSc1c2ccccc2nc2ccccc12)Nc1ccccc1-c1ccccc1NC(=O)CSc1c2ccccc2nc2ccccc12`, the TGI in the assay on SF-295 CNS was over 81.2 µM; in the assay on NCI-H23 lung, 61.6 µM; in the assay with HCT-116 colon, over 100 µM; with NCI-H460 lung it was over 88.4 µM; in the assay on M14 melanoma it was over 73.9 µM; in the assay with A549 NSCLC, over 100 µM. For the same compound, the TGI in the assay on SF-539 CNS is over 64.7 µM; in the assay on SNB-75 CNS, over 100 µM; in the assay with SN12C renal, over 83.5 µM; in the assay on HCC-2998 colon, 34.5 µM; in the assay on UACC-62 melanoma it was 52.7 µM; with EKVX NSCLC, over 76.6 µM. The TGI was over 100 µM in the assay on OVCAR-5 ovarian; over 100 µM with UO-31 renal; over 40.3 µM with OVCAR-4 ovarian; over 75 µM in the assay with COLO 205 colon; over 30.1 µM in the assay on K-562 leukemia.
As for `CC(C)=CC1CC(=[N+]=[N-])C(=O)C1(C)C` (stereo unspecified), the TGI with SF-295 CNS, in the assay on NCI-H23 lung, in the assay with HCT-116 colon, in the assay with NCI-H460 lung, in the assay with M14 melanoma and in the assay on A549 NSCLC was over 100 µM each time. Further, the TGI with SF-539 CNS was over 100 µM; in the assay on SNB-75 CNS, over 86.5 µM; with SN12C renal, over 100 µM; with HCC-2998 colon it was over 100 µM; with UACC-62 melanoma it was over 100 µM; in the assay with EKVX NSCLC, over 100 µM. Also, the TGI in the assay with OVCAR-5 ovarian, in the assay with UO-31 renal, in the assay with OVCAR-4 ovarian, with COLO 205 colon and in the assay with K-562 leukemia was over 100 µM throughout.
